Measurements reported in patent US7041638B2, “Surfactant prevention of vaginitis and lung complications from cancer chemotherapy” (The Penn State Research Foundation, priority 2001, dated 2006).
Like-named read-outs stand apart in the source and are kept apart here.

Assays:
Assay type in all cases: cell-based, human
THP-1 cells [1] = experiment: Cytokine production by differentiated THP-1 cells after SP-A, bleomycin or Ara-C (ELISA); conditions: for TNF-α level in culture medium: mean±SEM, FIG. 3A
Method: (§1) The THP-1 cell line was obtained from the American Type Culture Collection. Cells were grown in RPMI 1640 medium (Sigma) with 0.05 mM 2-mercaptoethanol containing 10% fetal calf serum (FCS; Summit Biotechnology) at 37° C. in an atmosphere of 5% CO2. The cells were split periodically and used at passages 8–15 in the various experiments. After differentiation with 10^−8 M Vitamin D3 for 72 h, cells were pelleted and washed with cold PBS. The cell pellet was then resuspended in complete RPMI 1640 medium with 10% FCS at a density of 2×10^6 cells/ml in 24-well culture plates, and exposed to bleomycin and SP-A. Cell viability was determined by trypan blue exclusion. […] Incubations were terminated by pelleting the cells. Supernatants and/or cell pellet were stored at −80° C. until assayed.
(§2) After differentiation with 10^−8 M of vitamin D3 for 72 h, THP-1 cells were pelleted and washed as described above. Cells at a density of 2×10^6 cells/ml were incubated at 24 well culture plates. For dose-response study, cells were stimulated with bleomycin at concentrations ranging from 0–100 mU/ml. Time-dependent secretion of cytokines following bleomycin treatment was studied from 0–24 h with 5 and 50 mU/ml of bleomycin. In experiments where the combined effects of SP-A and bleomycin were examined, SP-A (10 μg/ml) and bleomycin (5 or 50 mU/ml) were added to cells simultaneously, unless otherwise noted. After treatment, the culture medium was collected at 4 h or 6 h for the ELISA assay of cytokine production and cells were harvested at 2 h or 4 h for cytokine mRNA analysis.
Cytosine arabinoside (Ara-C, Cytosar-U, Pharmacia & Upjohn) was included in some experiments to confirm the specificity of the effect of bleomycin on proinflammatory cytokine production by THP-1 cells. Ara-C is another antineoplastic agent with known cytotoxicity. […] Ara-C, at concentrations ranging from 0.1 to 5 mM in culture medium, was used for evaluating the effect of Ara-C on TNF-α. The conditions employed in the Ara-C experiments were the same as those in bleomycin studies except that only a 4 h time point was done.
The ELISA assays for TNF-α, IL-8, and IL-1β (OptEIA Human ELISA Sets, Pharmingen) were performed according to the instructions recommended by the manufacturer. The ELISA kits were capable of measuring levels of 7.8–500 pg/ml for TNF-α, 6.2–400 pg/ml for IL-8 and 20–1000 pg/ml for IL-1β. A reference curve for each of these cytokines was obtained by plotting the concentration of several dilutions of standard protein versus the corresponding absorbance.

THP-1 cells [2] = experiment: Cytokine mRNA in THP-1 cells by ribonuclease protection assay (RPA); conditions: for relative intensity of TNF-α mRNA / IL-8 mRNA level: SP-A 10 μg/ml and/or bleomycin 5 mU/ml, normalized to L32; for relative intensity of TNF-α mRNA: FIG. 4A; for IL-8 mRNA level: 4 h, FIG. 4B
Method: as §2
Total RNA was isolated from THP-1 cells at 2 h or 4 h after treatment by using Rneasy Mini Kits (QIAGEN) according to the protocol of the RNeasy Mini Handbook. Cytokine mRNA quantification was performed by ribonuclease protection assay (RPA). RiboQuant™ Ribonuclease RPA Starter Package and a Customized Human Template Set (Pharmingen) were used to analyze TNF-α, IL-1β, and IL-8 mRNA in one assay. The customized template set contains DNA templates that can be used for T7 RNA polymerase-directed synthesis of α-^32P-UTP-labeled, anti-sense RNA probes. These can be hybridized to TNF-α, IL-1β, and IL-8 mRNA. Templates for the L32 and GAPDH housekeeping genes were also included to allow for normalization of sampling or technical error. Aliquots of 2 μg of total RNA were hybridized with radiolabeled probes at 56° C. for 16 h. RNase treatment followed, resulting in degradation of single-stranded RNA and free probes. After inactivation and precipitation, protected probes were resolved by a 5% polyacrylamide-urea sequence gel electrophoresis and visualized by autoradiography. Densities of the protected bands were quantified by soft laser densitometry. The mRNA level is expressed as the ratio of the densitometric value of each cytokine mRNA to that of the L32 or GAPDH mRNA.

THP-1 cells [3] = experiment: Cell viability by trypan blue exclusion
Method: as §1

[4] = SP-A 10 μg/ml and/or bleomycin 5 mU/ml, 4 h

Row | Compound | TNF-α level after Ara-C treatment versus control (THP-1 cells [1]; Ara-C 0.1 to 5 mM, 4 h, FIG. 1D) | TNF-α level in culture medium (THP-1 cells [1]; [4]) [pg/mL] | relative intensity of TNF-α mRNA (THP-1 cells [2]; 2 h) | IL-8 mRNA level (THP-1 cells [2]) | effect on the viability of THP-1 cells (THP-1 cells [3]) | lowest bleomycin concentration that increased TNF-α level (THP-1 cells [1]; 4 h, dose range 0–100 mU/ml, FIG. 1A) [mU/ml] | lowest bleomycin concentration that increased IL-8 level (THP-1 cells [1]; 4 h, dose range 0–100 mU/ml, FIG. 1B) [mU/ml] | bleomycin concentration needed to increase IL-1β level significantly (THP-1 cells [1]; 6 h, dose range 0–100 mU/ml, FIG. 1C) [mU/ml] | time to maximum TNF-α level (THP-1 cells [1]; bleomycin 5, 50 mU/ml, depending on dose, FIG. 2A) [h] | time at which increase of TNF-α levels was detected (THP-1 cells [1]; bleomycin 5, 50 mU/ml, 0–24 h, FIG. 2A) [h] | time at which TNF-α returned to background levels (THP-1 cells [1]; bleomycin 5, 50 mU/ml, FIG. 2A) [h] | time to maximal IL-8 level (THP-1 cells [1]; bleomycin 5, 50 mU/ml, FIG. 2B) | time to peak IL-1β level (THP-1 cells [1]; bleomycin 5, 50 mU/ml, FIG. 2C) [h] | TNF-α level in culture medium (THP-1 cells [1]; bleomycin 50 mU/ml with or without SP-A 10 μg/ml, 4 h) [pg/mL] | relative intensity of IL-1β mRNA (THP-1 cells [2]; 2 h, SP-A 10 μg/ml, bleomycin 5 mU/ml, LPS 0.1 ng/ml) | effect on the viability of THP-1 cells (THP-1 cells [3]; conditions employed in this study)
1 | Nc1ccn([C@@H]2O[C@H](CO)[C@@H](O)[C@@H]2O)c(=O)n1 [Ara-C, Cytosine arabinoside] | did not differ from that of control | – | – | – | – | – | – | – | – | – | – | – | – | – | – | –
2 | SP-A: native human surfactant protein A purified from bronchoalveolar lavage of alveolar proteinosis patients | – | 86.6 ± 11.5 | 0.51±0.27 | 1.26±0.14 | neither bleomycin nor SP-A appeared to have any effect | – | – | – | – | – | – | – | – | – | – | –
3 | bleomycin | – | 45.9 ± 10.6 | 0.74±0.20 | 1.02±0.16 | – | 0.5 | 0.5 | 50 | 4 to 6 | 3 | 24 | around 5 h | 10 | 82.1 ± 17.3 | Very low levels | neither bleomycin nor SP-A appeared to have any effect
